Measurements from publication PMC3577862, “A Multiple Reaction Monitoring (MRM) Method to Detect Bcr-Abl Kinase Activity in CML Using a Peptide Biosensor” (PLoS ONE, 2013).

Key:
[1] = tested on: chronic myelogenous leukemia (CML) patients; details: CML patients on imatinib; cited from earlier work
Source text: [1] […] Approximately 90% of CML patients achieve initial remission with ...

[2] = target: T1, Bcr-Abl (Homo sapiens, UniProt P00519+P11274); experiment: Cell-based biosensor assay, Western blot detection (4G10 antiphosphotyrosine / streptavidin); set-up: applied here to the disease-relevant, patient-derived CML model cell line K562; BCR N-terminal portion (fusion partner, human BCR P11274); endogenous in cells; host or cells: K562 (human CML cell line); details: 25 µM peptide alone, + 10 µM imatinib (1 h pre-incubation) or + 1 µM pervanadate; 5, 30, 60 min; N = 3
T1 sequence (P11274+P00519 fused): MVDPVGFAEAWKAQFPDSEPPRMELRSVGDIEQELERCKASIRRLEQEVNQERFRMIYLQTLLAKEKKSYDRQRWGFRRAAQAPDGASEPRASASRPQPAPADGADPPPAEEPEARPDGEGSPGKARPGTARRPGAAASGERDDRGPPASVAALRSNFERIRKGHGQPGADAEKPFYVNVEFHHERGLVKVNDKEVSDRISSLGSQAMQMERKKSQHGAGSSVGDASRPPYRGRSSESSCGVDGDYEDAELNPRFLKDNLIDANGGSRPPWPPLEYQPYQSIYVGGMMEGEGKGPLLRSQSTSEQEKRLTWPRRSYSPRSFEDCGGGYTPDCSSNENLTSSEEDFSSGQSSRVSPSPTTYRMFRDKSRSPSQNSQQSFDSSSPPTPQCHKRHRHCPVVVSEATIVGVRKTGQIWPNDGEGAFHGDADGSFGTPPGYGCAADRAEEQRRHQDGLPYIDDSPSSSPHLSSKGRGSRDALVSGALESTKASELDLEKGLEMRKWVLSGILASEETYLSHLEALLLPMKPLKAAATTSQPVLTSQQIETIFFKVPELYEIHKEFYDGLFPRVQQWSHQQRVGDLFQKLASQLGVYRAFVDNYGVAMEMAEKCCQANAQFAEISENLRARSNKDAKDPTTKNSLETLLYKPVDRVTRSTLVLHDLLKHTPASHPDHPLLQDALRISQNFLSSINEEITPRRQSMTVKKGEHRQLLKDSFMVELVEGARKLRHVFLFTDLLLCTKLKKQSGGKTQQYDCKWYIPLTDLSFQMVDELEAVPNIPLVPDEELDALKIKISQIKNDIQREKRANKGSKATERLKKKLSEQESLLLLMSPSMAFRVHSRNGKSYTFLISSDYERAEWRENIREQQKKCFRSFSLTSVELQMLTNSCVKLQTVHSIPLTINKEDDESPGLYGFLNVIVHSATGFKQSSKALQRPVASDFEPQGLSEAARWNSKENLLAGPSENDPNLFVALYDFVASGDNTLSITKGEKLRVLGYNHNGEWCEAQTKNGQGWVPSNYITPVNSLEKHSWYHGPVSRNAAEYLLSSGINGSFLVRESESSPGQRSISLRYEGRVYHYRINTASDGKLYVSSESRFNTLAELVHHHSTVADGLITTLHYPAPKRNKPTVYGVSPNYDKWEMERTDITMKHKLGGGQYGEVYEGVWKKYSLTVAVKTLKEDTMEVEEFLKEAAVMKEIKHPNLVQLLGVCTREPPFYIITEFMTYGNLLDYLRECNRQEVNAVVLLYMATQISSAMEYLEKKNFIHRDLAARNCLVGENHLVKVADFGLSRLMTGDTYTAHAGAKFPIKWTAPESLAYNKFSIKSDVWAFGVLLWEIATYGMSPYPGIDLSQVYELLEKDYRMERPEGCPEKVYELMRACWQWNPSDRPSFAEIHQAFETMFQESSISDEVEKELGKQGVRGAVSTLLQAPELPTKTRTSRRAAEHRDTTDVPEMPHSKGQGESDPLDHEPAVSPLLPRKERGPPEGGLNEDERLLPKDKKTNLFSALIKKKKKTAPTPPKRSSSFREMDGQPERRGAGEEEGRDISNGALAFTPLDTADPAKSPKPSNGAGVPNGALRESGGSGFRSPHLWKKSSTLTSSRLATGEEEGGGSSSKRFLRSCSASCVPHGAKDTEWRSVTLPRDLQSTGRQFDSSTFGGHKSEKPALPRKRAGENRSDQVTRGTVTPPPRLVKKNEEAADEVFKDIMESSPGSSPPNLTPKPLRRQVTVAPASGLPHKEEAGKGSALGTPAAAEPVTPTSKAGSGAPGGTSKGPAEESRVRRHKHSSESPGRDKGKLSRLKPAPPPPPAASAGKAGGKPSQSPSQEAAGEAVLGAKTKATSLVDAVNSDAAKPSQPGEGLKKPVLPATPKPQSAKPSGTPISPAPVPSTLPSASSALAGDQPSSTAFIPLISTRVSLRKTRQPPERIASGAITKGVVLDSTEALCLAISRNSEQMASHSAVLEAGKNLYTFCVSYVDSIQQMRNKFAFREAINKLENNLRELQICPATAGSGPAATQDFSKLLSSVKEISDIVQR
Procedure: Samples of equal protein content (100 µg/lane) were diluted into Laemmli buffer and subjected to SDS-PAGE. Proteins were transferred to nitrocellulose membrane and analyzed by Western blotting. Membranes were split at the 15 kD mark and blocked in 3% milk in TBS-T overnight at 4°C, followed by blotting with the indicated antibodies in 3% milk/TBS-T. The bottom membrane was blotted with: DyLight-649 labeled Streptavidin (1∶1000, ThermoFisher Pierce) to detect total biosensor; 4G10 α-phosphotyrosine antibody to detect the phosphorylated biosensor. […] Signals of immunoblots were visualized using the Odyssey system (LiCOR Biosciences, Lincoln, NE), quantified using densitometry with Quantity One (Bio-Rad), and analyzed with GraphPad Prism software.
We based the peptide biosensor assay for Bcr-Abl/Abl kinase activity on our previously reported methodology, [17], [18] applied here to the disease-relevant, patient-derived CML model cell line K562. […] Lysates were processed as described in the Experimental Procedures, separated by SDS-PAGE and analyzed by Western blot using a two-color LiCOR scanner for quantitative detection of IR-dye labeled secondary antibodies and streptavidin (to measure total peptide signal via the biotinylated residue).

[3] = target: T1, Bcr-Abl; experiment: Cell-based biosensor assay, MRM (LC-MS/MS) detection of biosensor phosphorylation; details: for phosphorylated peptide detected by MRM (in words): biosensor 5 min, alone or with imatinib or pervanadate; for phosphorylated peptide detected by MRM (in words) / phosphopeptide, 580-480 transition / unphosphorylated peptide, 540-604 transition / phosphopeptide, 580-604 transition / unphosphorylated peptide, 540-767 transition: 1 µg lysate; for phosphopeptide, 580-480 transition / unphosphorylated peptide, 540-604 transition / phosphopeptide, 580-604 transition / unphosphorylated peptide, 540-767 transition / %phospho: K562, 5 min; for phosphopeptide, 580-604 transition / unphosphorylated peptide, 540-767 transition: transition not chosen for quantitation; for %phospho: from fmol of 580-480 and 540-604
[4] = tested on: K562 cells
Procedure: Biosensor peptide from samples generated as described above (in the Cell-based biosensor assay section) was captured using streptavidin-coated MagneSpheres (Promega Corporation, Madison, WI). The beads (20 µl) were prepared by washing with 0.1% Octyl-β-glucoside/PBS (3×150 µl). K562 cell lysates (200 µg total protein) were incubated with the beads on a shaker (600 rpm, 60 min). Beads were captured using a MagnaBot 96-well magnetic capture device (Promega) and washed with 0.1% Octyl-β-glucoside/PBS (3×150 µl) and deionized water (3×150 µl). Peptide was eluted using 15 µL sample buffer (ACN/H2O/TFA, 50%/50%/0.1%). 0.5 µL from each sample was co-spotted with α-cyano-4-hydroxycinnamic acid (10% w/v) containing ammonium dihydrogen phosphate (5 mg/ml), [22] dried and analyzed on a 4800 MALDI-TOF/TOF Analyzer (ABSciex). Selected ions were analyzed by MS/MS (specifying the parent ion mass for selection and CID) and sequenced de novo.
Peptide in lysates was enriched using streptavidin-coated magnetic nanoparticles through the peptide’s biotinylated reporter segment.

[5] = biological replicate 1, P, P+G, P+V treatments
[6] = biological replicate 2, P, P+G, P+V treatments
[7] = biological replicate 3, P, P+G, P+V treatments

In the case of Cc1ccc(NC(=O)c2ccc(CN3CCN(C)CC3)cc2)cc1Nc1nccc(-c2cccnc2)n1 [imatinib], the “CML patients achieving initial remission with imatinib” value [1] is listed as “Approximately 90%”, the “patients who never respond or develop recurrent and/or resistant disease (relapse within a few years; 1–5 years of starting treatment)” value [1] is listed as “approximately 30%” and the “patients whose remission remains stable for a long period of time” value [1] is listed as roughly 70%.
With “EAIYAAPFAKKK(γ-biotin)G-βNpa-GCGGAPTYSPPPPPGGRKKRRQRRRLL [Peptide]” the “phosphorylation of the biosensor peptide in K562 cells (Western blot, 4G10)” value [2] was “phosphorylated”, the “Total (fmol), Peptide only” value ([3]; K562 cells, 25 µM peptide alone, 5 min, unphosphorylated plus phosphorylated, per µg of digested lysate, MRM, mean ±SD of three replicate biological experiments) was 28 ± 5 fmol and the “phosphorylated peptide detected by MRM (in words)” value ([3]; K562 cells) was “both unphosphorylated and phosphorylated peptides were detected”. For the same compound, the “site of degradation of the biosensor in cells” value [4] was “C-terminal degradation”.
With pervanadate the “phosphorylation of the biosensor peptide in K562 cells (Western blot, 4G10)” value [2] was “stabilized”, the “Unphospho (fmol), Peptide+pervanadate” value ([3]; K562 cells, 25 µM peptide + 1 µM pervanadate, 5 min, 540→604, per µg of digested lysate, mean ±SD of three replicates) was 14 ± 0.6 fmol and the “Phospho (fmol), Peptide+pervanadate” value ([3]; K562 cells, 25 µM peptide + 1 µM pervanadate, 5 min, 580→480, per µg of digested lysate, mean ±SD of three replicates) was 17 ± 12 fmol. The “% phospho, Peptide+pervanadate” value ([3]; K562 cells, 25 µM peptide + 1 µM pervanadate, 5 min, MRM, mean ±SD of three replicates) was 52±16%, the “Total (fmol), Peptide+pervanadate” value ([3]; K562 cells, 25 µM peptide + 1 µM pervanadate, 5 min, unphosphorylated plus phosphorylated, per µg of digested lysate, mean ±SD of three replicates) was 31 ± 13 fmol and the “phosphorylated peptide detected by MRM (in words)” value ([3]; K562 cells) was “higher levels”. For the same compound, the “phosphopeptide, 580-480 transition” value ([3]; biological replicate 1, P = peptide alone, P+G = + imatinib, P+V = + pervanadate, corrected AUC x 1/slope) was 31.582 fmol, the “unphosphorylated peptide, 540-604 transition” value [3, 5] was 14.1586 fmol and the “phosphopeptide, 580-604 transition” value [3, 5] was 42.5934 fmol. The “unphosphorylated peptide, 540-767 transition” value [3, 5] was 15.6618 fmol, the “%phospho” value [3, 5] was 69.0458% and the “phosphopeptide, 580-480 transition” value [3, 6] was 10.229 fmol. The “unphosphorylated peptide, 540-604 transition” value [3, 6] was 12.9195 fmol, the “phosphopeptide, 580-604 transition” value [3, 6] was 16.5395 fmol and the “unphosphorylated peptide, 540-767 transition” value [3, 6] was 12.6668 fmol. The “%phospho” value [3, 6] was 44.1886%, the “phosphopeptide, 580-480 transition” value [3, 7] was 10.3517 fmol and the “unphosphorylated peptide, 540-604 transition” value [3, 7] was 13.5084 fmol. The “phosphopeptide, 580-604 transition” value [3, 7] was 16.6663 fmol, the “unphosphorylated peptide, 540-767 transition” value [3, 7] was 11.085 fmol and the “%phospho” value [3, 7] was 43.385%.
